The record followed here is patent publication US6897316B2, “Substituted 2-phenyl-4-quinolone-3-carboxylic acid compounds and their use as antitumor agents” (China Medical University, priority 2003, dated 2005).

In brackets after ≈: the same amount, converted by molar mass.

One assay concerns OVCAR-4 (ovarian cancer). Kind of assay: Growth inhibition in human cancer cell line panel, OVCAR-4. It counts as cell-based. The conditions noted are these: 48 hr, SRB. How it is done: Compound IX-8 was evaluated growth inhibition activities against a panel of 39 human cancer cell lines including Human breast cancer MDA-MB-231 and the following human cancer cell lines were generously distributed by the National Cancer Institute (Frederick, Md.): lung cancer, NCI-H23, NCI-H226, NCI-H522, NCI-H460, A-549, DMS273 and DMS114; colon cancer, HGC-2998, KM-12, HT-29, HCT-15, and HCT-116; ovarian cancer, OVCAR-3, OVCAR-4, OVCAR-5, OVCAR-8, and SKOV-3; breast cancer, MCF-7; renal cancer, RXF-631L and ACHN; melanoma, LOX-IMVI; brain tumor, U251, SF-295, SF-539, SF-268, SNB-75, and SNB-78, and prostate cancer, DU-145 and PC-3. […]
The details of measuring cell growth inhibition are described elsewhere [Monks, A., Scudiero, D., Skehan, P., Shoemaker, R., Paull, K., Vistica, D., Hose, C., Langley, J., Cronise, P., Vaigro-Wolff, A., Gray-Goodrich, M., Campbell, H., Mayo, J., Boyd, M. Feasibility of a high-flux anticancer drug screen using a diverse panel of cultured human tumor cell lines. […] Then, the cell growth was determined according to the Sulforhodamine B assay, described by Skehan et al [Skehan, P., Storeng, R., Scudiero, D., Monks, A., McMahon, J., Vistica, D., Warren, J. T., Bokesch, H., Kenney, S., Boyd, M. R. New calorimetric cytotoxicity assay for anticancer-drug screening. […]

Assay [1] has as its system glioblastoma (U87-MG) cell line. Kind of assay: Activity against HTCL replication, U87-MG. It counts as cell-based, human. The conditions noted are these: mean ED50. The procedure: Compounds were assayed for in vitro cytotoxicity in a panel of human tumor cell lines at the School of Pharmacy, University of North Carolina at Chapel Hill, according to procedures described previously [Lee, K. H., Lin, Y. M., Wu, T. S., Zhang, D. C., Yamagishi, T., Hayashi, T., Hall, I. H., Chang, J. J., Wu, R. Y., Yang, T. H. The cytotoxic principles of Prunella vulgaris, Psychotria serpens, and Hyptis capitata: Ursolic acid and related derivatives. Planta Med. 1988, 54, 308-11; Boyd, M. R. Status of the National Cancer Institute preclinical antitumor drug discovery screen: implications for selection of new agents for clinical trial. Devita, V. T., Jr. Hellman, S., Rosenberg, S. A., Eds, J. B. Cancer: Principles and Practice of Oncology Update, 1989, 3: pp1-12, Lippincoft: Philadephia; Monks, A., Scudiero, D., Skehan, P., Shoemaker, R., Paull, K., Vistica, D., Hose, C., Langley, J., Cronise, P., Vaigro-Wolff, A., Gray-Goodrich, M., Campbell, H., Mayo, J., Boyd, M. Feasibility of a high-flux anticancer drug screen using a diverse panel of cultured human tumor cell lines. J. Natl. Cancer Inst. 1991, 83, 757-66.] […]

As usually defined, the GI50 is the concentration that inhibits growth by half. Low readings indicate more potent growth inhibition, high ones less potent growth inhibition. Consider `COc1ccc2[nH]c(-c3cccc(F)c3)c(C(=O)O)c(=O)c2c1` [IX-8, 3′-Fluoro-6-methoxy-2-phenyl-4-quinolone-3-carboxylic acid], for which halving of growth in the assay on OVCAR-4 (ovarian cancer) (GI50) required 174 nM. Also, in assay [1], the “ED50 U87-MG” value was determined as 1.50 µg/mL (≈ 4.79 µM).
